From US20190167771A1, “CONTROL ANGIOGENESIS BY REGULATING PHOSPHORYLATION OF SERYL-tRNA SYNTHETASE (SerRS)” (The Scripps Research Institute, priority 2016, published 2019)

Key:
zebrafish embryos = experiment: Intersegmental vessel (ISV) branching in zebrafish embryos; type: in vivo; conditions: human SerRS mRNA co-injected with SerRS-MO, 3 dpf
Method: (§1) In FIG. 2A, wild type SerRS (SerRS^WT), its mutants with double substitutions of serine 101 and 241 with alanine or aspartic acid residues (SerRS^S101A/S241A and SerRS^S101D/S241D), or empty vector were transfected into HEK293 cells. The expression levels of SerRS proteins was measured by immunoblot (bottom) and VEGFA expression was determined by qRT-PCR (means±SEM from three independent experiments; ***P<0.0001). In FIGS. 2B-D, the roles of SerRS^S101A/S241A and SerRS^S101D/S241D in regulating vascular development in vivo in zebrafish were examined by co-injection of SerRS^S101A/S241A and SerRS^S101D/S241D mRNAs into one-cell-stage embryos whose endogenous SerRS was knocked down by injection of antisense morpholino (SerRS-MO) that led to abnormal high expression of Vegfa and hypervascularization (shown by short bold arrows in FIG. 2C). At 3 day post fertilization (dpf), embryos were harvested and Vegfa expression levels were measured by qRT-PCR (means±SEM, n=125-211; *P<0.01, **P<0.001) (B). The development of intersegmental vessel (ISV) at 3 dpf was examined (C) and the statistics of ISV abnormal branching rescued by SerRS^WT or mutant SerRS mRNA injections was analyzed (D; χ^2-test,* P>0.05 vs SerRS^WT, **P>0.1 vs SerRS-MO, ***P<1×10^−28 vs control-MO). In FIG. 2E, the binding affinities of SerRS^WT or SerRS^S101D/S241D with ^32P labeled DNA fragments corresponding to SerRS binding site on human VEGFA promoter were examined by EMSA. In FIG. 2F, the binding of SerRS^WT, SerRS^S101A/S241A, or SerRS^S101D/S241D on VEGFA promoter in HEK293 cells was examined by chromatin immunoprecipitation (ChIP) and qPCR (means±SEM from two independent experiments; ***P<0.0001). In FIG. 2G, the binding of endogenous SerRS on VEGFA promoter during hypoxia course was monitored by ChIP (means±SEM from three independent experiments; *P<0.05, **P<0.005 vs normal).
Transgenic Tg (Fli1a: EGFP) fish were maintained as we described before (Ref). The fish embryos were kept at 28.5° C. before and after microinjection. The antisense morpholino (MOs) targeting SerRS was injected into the yolk of 1-cell stage embryos at the dosage of 4˜5 ng per embryo. The sequence of SerRS-MO is (Ref). The SerRS-MO (5′ AGGAGAATGTGAACAAACCTGACAC 3′ (SEQ ID NO: 34)) and standard control MO (5′ CCTCTTACCTCAGTTACAATTTATA 3′ (SEQ ID NO: 35)) were purchased from Gene Tools, LLC (Philomath, Oreg. USA). After injection, embryos were incubated in E3 embryo medium supplemented with 0.003% 1-phenyl-2-thiourea (PTU) at 28.5° C. to prevent pigment formation. […] The rescue effects of different SerRS mutants on ISV development were analyzed with χ^2 test. […]

Vegfa = Vegfa mRNA by qRT-PCR in zebrafish embryos with SerRS knockdown and mRNA co-injection; type: in vivo; conditions: human SerRS mRNA co-injected with SerRS-MO, 3 dpf
Method: as §1
Total RNA was isolated from cells and zebrafish embryos by TRIzol Reagent (ThermoFisher Scientific). […] of the total RNA from each sample was reversely transcribed to cDNA by M-MLV reverse transcriptase (Promega, Madison, Wis., USA). All real-time PCR reactions were performed using the StepOnePlus Real-Time PCR system (ThermoFisher Scientific) with SYBR Select Master Mix ThermoFisher Scientific). […]

Substance	zebrafish embryos with abnormal hyper-ISV branching phenotype (zebrafish embryos)	rescue of Vegfa mRNA increase caused by SerRS-MO (Vegfa)
SerRS^S101A/S241A: phosphorylation-deficient human SerRS double mutant, serine 101 and 241 to alanine, SEQ ID NO: 4 (mouse version in matrigel assay)	26.4%	rescued or largely rescued
SerRS^S101D/S241D: SerRS with double substitutions of S101 and S241 with aspartic acid, mimics the phosphorylated SerRS	62.7%	no rescue effect at all
SerRS^WT: wildtype human seryl-tRNA synthetase protein, SEQ ID NO: 1 (mouse wild type used in the 3B11 matrigel assay)	17.9%	rescued or largely rescued
